# Experimental data reported in patent US6495544B2, “Homoiminopiperidinyl hexanoic acid inhibitors of inducible nitric oxide synthase” (Pharmacia Corporation, priority 2000, dated 2002).
# Assays:
# [1] = biological target: T1, hncNOS (Homo sapiens, UniProt P29475); assay: Assay for time dependent inhibition, hncNOS; type: biochemical; details: 60 min preincubation
# T1 construct: made in house; host or cells: Sf9 insect cells, baculovirus vector
# Method: (§1) Nitric oxide synthase (NOS) activity is measured by monitoring the conversion of [^3H]-arginine to [^3H]-citrulline (Bredt and Snyder, Proc. Natl. Acad. Sci. U.S.A., 87, 682-685, 1990 and Misko et al, Eur. J. Pharm., 233, 119-125, 1993). Human inducible NOS (hiNOS), human endothelial constitutive NOS (hecNOS) and human neuronal constitutive NOS (hncNOS) are each cloned from RNA extracted from human tissue. The cDNA for human inducible NOS (hiNOS) is isolated from a lambda cDNA library made from RNA extracted from a colon sample from a patient with ulcerative colitis. The cDNA for human endothelial constitutive NOS (hecNOS) is isolated from a lambda cDNA library made from RNA extracted from human umbilical vein endothelial cells (HUVEC) and the cDNA for human neuronal constitutive NOS (hncNOS) is isolated from a lambda cDNA library made from RNA extracted from human cerebellum obtained from a cadaver. The recombinant enzymes are expressed in Sf9 insect cells using a baculovirus vector (Rodi et al, in The Biology of Nitric Oxide , Pt. 4: Enzymology Biochemistry and Immunology; Moncada, S., Feelisch, M., Busse, R., Higgs, E., Eds.; Portland Press Ltd.: London, 1995; pp 447-450). Enzyme activity is isolated from soluble cell extracts and partially purified by DEAE-Sepharose chromatography. To measure NOS activity, 10 μL of enzyme is added to 40 μL of 50 mM Tris (pH 7.6) in the presence or absence of test compounds and the reaction initiated by the addition of 50 μL of a reaction mixture containing 5 mM Tris (pH 7.6), 2.0 mg/mL bovine serum albumin, 2.0 mM DTT, 4.0 mM CaCl2, 20 μM FAD, 100 PM tetrahydrobiopterin, 0.4-2.0 mM NADPH and 60 μM L-arginine containing 0.9 μCi of L-[2,3-^3H]-arginine. The final concentration of L-arginine in the assay is 30 μM. For hecNOS or hncNOS, calmodulin is included at a final concentration of 40-100 nM. […] [3H]-Citrulline is separated by chromatography on Dowex 50W X-8 cation exchange resin and radioactivity determined with a liquid scintillation counter. […]
# [2] = tested on: inducible nitric oxide synthase; assay: In vivo assay, endotoxin-treated rats, plasma nitrite/nitrate; details: oral; for ED50: Rattus norvegicus, read-out: ED50, inhibition of LPS-induced increase in plasma nitrite/nitrate
# Method: Compounds are administered orally 0.5-1 hours prior to LPS administration and plasma nitrite/nitrate levels are determined 5 hours following LPS administration.
# [3] = biological target: T2, human neuronal constitutive NOS (hncNOS) (Homo sapiens, UniProt P29475); assay: Citrulline assay for nitric oxide synthase, hncNOS; type: biochemical; details: 30 μM L-arginine, 37° C., 15 minutes, calmodulin
# T2 construct: made in house; host or cells: Sf9 insect cells, baculovirus vector
# Method: as §1
# [4] = biological target: T3, Human inducible NOS (hiNOS) (Homo sapiens, UniProt P35228); assay: Citrulline assay for nitric oxide synthase, hiNOS; type: biochemical; details: 30 μM L-arginine, 37° C., 15 minutes
# T3 construct: made in house; host or cells: Sf9 insect cells, baculovirus vector
# Method: as §1
# [5] = biological target: T4, hecNOS (Homo sapiens, UniProt P29474); assay: Assay for time dependent inhibition, hecNOS; type: biochemical; details: 60 min preincubation, read-out: % inhibition of NOS activity, hecNOS
# T4 construct: made in house; host or cells: Sf9 insect cells, baculovirus vector
# Method: as §1, with “447-450).” for “447-450). Enzyme activity is isolated from soluble cell extracts and partially purified by DEAE-Sepharose chromatography. To measure NOS activity, 10 μL of enzyme is added to 40 μL of 50 mM Tris (pH 7.6) in the presence or absence of test compounds and the reaction initiated by the addition of 50 μL of a reaction mixture containing 5 mM Tris (pH 7.6), 2.0 mg/mL bovine serum albumin, 2.0 mM DTT, 4.0 mM CaCl2, 20 μM FAD, 100 PM tetrahydrobiopterin, 0.4-2.0 mM NADPH and 60 μM L-arginine containing 0.9 μCi of L-[2,3-^3H]-arginine. The final concentration of L-arginine in the assay is 30 μM. For hecNOS or hncNOS, calmodulin is included at a final concentration of 40-100 nM.”
# [6] = biological target: T5, human endothelial constitutive NOS (hecNOS) (Homo sapiens, UniProt P29474); assay: Citrulline assay for nitric oxide synthase, hecNOS; type: biochemical; details: 30 μM L-arginine, 37° C., 15 minutes, calmodulin
# T5 construct: made in house; host or cells: Sf9 insect cells, baculovirus vector
# Method: as §1
# [7] = tested on: nitric oxide synthase induced by recombinant human IL-1β in human cartilage explants; assay: Human cartilage explant assay, nitrite production; type: cell-based; details: IL-1β stimulated, read-out: IC50, inhibition of nitrite production
# Method: Bone pieces are rinsed twice with Dulbecco's Phosphate Buffered Saline (GibcoBRL) and once with Dulbecco's Modified Eagles Medium (GibcoBRL) and placed into a petri dish with phenol red free Minimum Essential Medium (MEM) (GibcoBRL). Cartilage was cut into small explants of approximately 25-45 mg in weight and one or two explants per well are placed into 48 well culture plates with 500 μL of culture media per well. The culture media was either a custom modification of Minimum Essential Medium(Eagle) with Earle's salts (GibcoBRL) prepared without L-Arginine, without L-Glutamine and without phenol red or a custom modification of serumless Neuman and Tytell (GibcoBRL) medium prepared without L-arginine, without insulin, without ascorbic acid, without L-glutamine and without phenol red. Both are supplemented before use with 100 μM L-Arginine (Sigma), 2 mM L-glutamine, 1×HL-1 supplement (BioWhittaker), […] ascorbic acid (Sigma) and 150 pg/ml recombinant human IL-1β (RD Systems) to induce nitric oxide synthase. Compounds are then added in 10 μL aliquots and the explants incubated at 37° C. with 5% CO2 for 18-24 hours. […] This supernatant is analyzed for nitrite with a fluorometric assay (Misko et al, Anal. Biochem., 214, 11-16, 1993). […] IC50 values (Table III) are determined from plotting the percent inhibition of nitrite production at six different concentrations of inhibitor.
# [8] = 0.5-1 hours prior to LPS, plasma 5 hours after LPS
# T1 sequence (P29475 whole entry): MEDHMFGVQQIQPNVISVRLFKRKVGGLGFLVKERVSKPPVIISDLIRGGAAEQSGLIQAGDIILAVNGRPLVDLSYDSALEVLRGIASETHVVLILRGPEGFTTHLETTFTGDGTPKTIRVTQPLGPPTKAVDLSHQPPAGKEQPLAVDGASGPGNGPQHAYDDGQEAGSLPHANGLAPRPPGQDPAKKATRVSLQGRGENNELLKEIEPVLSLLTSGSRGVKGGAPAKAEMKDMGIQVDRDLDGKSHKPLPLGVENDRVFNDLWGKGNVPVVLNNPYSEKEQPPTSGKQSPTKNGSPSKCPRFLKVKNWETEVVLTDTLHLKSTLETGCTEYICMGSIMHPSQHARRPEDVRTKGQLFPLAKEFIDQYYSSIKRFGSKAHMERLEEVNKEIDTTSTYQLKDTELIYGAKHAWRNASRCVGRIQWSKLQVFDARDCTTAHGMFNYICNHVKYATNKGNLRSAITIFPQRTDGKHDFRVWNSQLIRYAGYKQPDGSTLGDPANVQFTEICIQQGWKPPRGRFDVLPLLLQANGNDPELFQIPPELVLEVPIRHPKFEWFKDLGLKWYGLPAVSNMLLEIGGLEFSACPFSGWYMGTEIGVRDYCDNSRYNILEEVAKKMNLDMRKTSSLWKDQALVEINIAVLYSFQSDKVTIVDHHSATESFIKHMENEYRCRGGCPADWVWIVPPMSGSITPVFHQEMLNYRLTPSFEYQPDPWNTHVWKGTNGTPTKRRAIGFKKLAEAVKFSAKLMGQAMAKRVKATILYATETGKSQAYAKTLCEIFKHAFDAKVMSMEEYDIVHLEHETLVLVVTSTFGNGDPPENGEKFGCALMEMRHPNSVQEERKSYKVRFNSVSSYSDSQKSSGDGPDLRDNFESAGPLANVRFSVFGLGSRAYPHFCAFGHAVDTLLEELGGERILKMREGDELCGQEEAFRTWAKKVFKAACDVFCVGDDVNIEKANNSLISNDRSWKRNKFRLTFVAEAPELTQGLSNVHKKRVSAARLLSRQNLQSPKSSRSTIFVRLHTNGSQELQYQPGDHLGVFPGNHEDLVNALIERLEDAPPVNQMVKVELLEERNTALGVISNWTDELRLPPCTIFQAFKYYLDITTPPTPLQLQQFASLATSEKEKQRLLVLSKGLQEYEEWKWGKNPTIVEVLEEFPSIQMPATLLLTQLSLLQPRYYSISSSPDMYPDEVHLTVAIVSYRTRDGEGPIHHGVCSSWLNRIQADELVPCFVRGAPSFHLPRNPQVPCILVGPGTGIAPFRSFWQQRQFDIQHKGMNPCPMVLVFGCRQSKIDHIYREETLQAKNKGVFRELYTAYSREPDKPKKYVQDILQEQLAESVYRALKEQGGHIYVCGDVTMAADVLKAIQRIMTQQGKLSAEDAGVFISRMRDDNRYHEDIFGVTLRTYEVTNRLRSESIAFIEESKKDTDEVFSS
# T4 sequence (P29474 2-1203): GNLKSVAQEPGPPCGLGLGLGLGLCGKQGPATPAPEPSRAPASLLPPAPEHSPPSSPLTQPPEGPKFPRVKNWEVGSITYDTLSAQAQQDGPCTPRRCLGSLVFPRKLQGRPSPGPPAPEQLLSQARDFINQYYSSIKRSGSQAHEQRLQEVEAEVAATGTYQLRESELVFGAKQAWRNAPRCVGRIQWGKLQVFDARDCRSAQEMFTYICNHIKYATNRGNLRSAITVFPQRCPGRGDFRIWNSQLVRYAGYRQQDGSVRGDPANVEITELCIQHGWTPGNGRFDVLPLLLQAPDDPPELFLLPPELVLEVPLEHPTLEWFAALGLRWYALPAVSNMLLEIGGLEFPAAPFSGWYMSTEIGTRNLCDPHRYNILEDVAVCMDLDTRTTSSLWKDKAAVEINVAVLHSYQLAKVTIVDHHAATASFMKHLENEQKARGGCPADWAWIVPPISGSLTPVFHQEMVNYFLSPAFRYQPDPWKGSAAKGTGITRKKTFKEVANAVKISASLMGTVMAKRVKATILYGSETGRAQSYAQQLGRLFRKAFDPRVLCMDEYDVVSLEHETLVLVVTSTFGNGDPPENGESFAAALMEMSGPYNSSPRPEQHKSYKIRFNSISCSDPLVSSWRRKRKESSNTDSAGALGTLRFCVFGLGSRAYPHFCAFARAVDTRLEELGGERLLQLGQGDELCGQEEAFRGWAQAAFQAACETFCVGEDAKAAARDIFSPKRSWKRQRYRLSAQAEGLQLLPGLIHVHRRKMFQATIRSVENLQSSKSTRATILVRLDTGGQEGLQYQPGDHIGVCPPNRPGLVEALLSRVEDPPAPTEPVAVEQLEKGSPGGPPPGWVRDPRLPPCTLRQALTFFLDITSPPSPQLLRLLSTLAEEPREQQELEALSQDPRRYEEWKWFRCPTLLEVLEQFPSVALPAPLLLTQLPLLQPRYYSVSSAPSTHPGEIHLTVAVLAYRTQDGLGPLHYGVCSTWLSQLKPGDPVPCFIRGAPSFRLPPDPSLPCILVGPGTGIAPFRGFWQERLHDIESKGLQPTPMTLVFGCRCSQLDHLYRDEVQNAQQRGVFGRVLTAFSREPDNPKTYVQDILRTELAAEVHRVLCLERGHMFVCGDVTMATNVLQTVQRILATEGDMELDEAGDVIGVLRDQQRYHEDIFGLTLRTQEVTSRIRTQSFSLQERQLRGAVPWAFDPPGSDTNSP
Compound,"% inhibition of NOS activity, hncNOS ([1]; 5 μM) [% @ 5 μM @ 60 min]","ED50 [2, 8] [mg/kg]",effect on LPS-induced increase in plasma nitrite/nitrate levels [2],"ED50, inhibition of LPS-induced increase in plasma nitrite/nitrate ([2]; 0.5-1 hours prior to LPS, plasma 5 hours after LPS, trihydrate hydrochloride) [mg/kg]",IC50 [3] [µM],IC50 [4] [µM],inhibition at 33 µM [5] [%],IC50 [6] [µM],IC50 [7] [µM],"% inhibition of NOS activity, hncNOS ([1]; 13 μM) [% @ 13 μM @ 60 min]","% inhibition of NOS activity, hncNOS ([1]; 3 μM) [% @ 3 μM @ 60 min]"
"Cl.N=C1CCCC[C@H](CCCC[C@@H](N)C(=O)O)N1.O.O.O [Example 1, (αR,2S)-α-aminohexahydro-7-imino-1H-azepine-2-hexanoic acid, trihydrate hydrochloride]",0,< 3,inhibited the LPS-induced increase in plasma nitrite/nitrate levels in a dose dependent manner,<3,> 3,< 3,11,> 30,< 10,–,–
"Cl.N=C1CCCC[C@@H](CCCC[C@H](N)C(=O)O)N1.O.O.O [Example 2, (αS,2R)-α-aminohexahydro-7-imino-1H-azepine-2-hexanoic acid, trihydrate hydrochloride]",–,–,–,–,> 10,< 5,–,> 150,–,0,–
"Cl.N=C1CCCC[C@H](CCCC[C@H](N)C(=O)O)N1.O.O.O [Example 4, (αS,2S)-α-aminohexahydro-7-imino-1H-azepine-2-hexanoic acid, trihydrate hydrochloride]",–,< 5,–,–,> 3,< 3,–,> 15,< 10,–,0
